Measured values: patent US20240263142A1, “HUMAN OVARIAN CANCER NIRAPARIB-RESISTANT CELL STRAIN AND USE THEREOF” (WOMEN’S HOSPITAL, ZHEJIANG UNIVERSITY SCHOOL OF MEDICINE, priority 2022, published 2024)
Like-named read-outs stand apart in the source and are kept apart here.

What was measured:
A2780 cells = experiment: CCK-8 cytotoxicity experiment on parental A2780 cells; format: cell-based; conditions: Homo sapiens, 72 h drug treatment
Procedure: (§1) A cell counting kit-8 (CCK-8) of Shanghai Beyotime Biotechnology Co., Ltd. (C0038) was used in the cytotoxicity experiment. Cells in logarithmic growth phase were collected, and the concentration of cell suspension was adjusted to 5×10^4 cells/ml; 100 μl of the cell suspension was added to each well of 96-well plate, and the density of the cells to be tested was 5000 cells/well; cultures were incubated overnight in the incubator with 5 vol % CO2 at 37° C. until the cells were grown as adherent monolayers, and then drugs with concentrations of 1×10^−3-100 μM were added respectively; 3 replicate wells were set for each concentration; OD values were determined after 72 h of drug treatment; 10 μl CCK-8 solution was added to each well; after further incubation in the cell incubator for 2 h, the absorbance was measured at 450 nm using a microplate reader (Bio-Rad, Model 680), as shown in FIG. 3. The IC50 of the drug was calculated.

A2780-NiraR cells = experiment: CCK-8 cytotoxicity experiment on Niraparib-resistant A2780-NiraR cells (resistance index, stability of resistance); format: cell-based, human; conditions: for Drug resistance index (RI) = IC50 of drug-resistant cells/IC50 of parental cells: A2780-NiraR vs A2780; for IC50: Homo sapiens
Procedure: as §1
Resistance index (RI)=IC50 of drug-resistant cells/IC50 of parental cells.
After the establishment of A2780-NiraR cell strain, the drug resistance was re-tested after cell resuscitation following 3-month drug-withdrawal culture and 6-month liquid nitrogen cryopreservation. The procedure was the same as that of the resistance index determination in part 3.

[1] = A2780-NiraR cells, 72 h drug treatment, CCK-8, read-out: IC50

With `NC(=O)c1cccc2cn(-c3ccc([C@@H]4CCCNC4)cc3)nc12` [Niraparib] the IC50 (A2780 cells) was 3.17 µM, the “Resistance of A2780-NiraR cells in words” value (A2780-NiraR cells; A2780-NiraR cells) was “highly resistant” and the “Drug resistance index (RI) = IC50 of drug-resistant cells/IC50 of parental cells” value (A2780-NiraR cells) was 8.274. The IC50 (A2780-NiraR cells; A2780-NiraR after resuscitation following 3-month drug-withdrawal culture and 6-month liquid nitrogen cryopreservation, read-out: IC50 of A2780-NiraR on re-test) was 24 µM and the IC50 (A2780-NiraR cells; [1]) was 26.2 µM.

In the case of `CC(=O)O[C@H]1C(=O)[C@@]2(C)[C@H]([C@H](OC(=O)c3ccccc3)[C@]3(O)C[C@H](OC(=O)[C@H](O)[C@@H](NC(=O)c4ccccc4)c4ccccc4)C(C)=C1C3(C)C)[C@]1(OC(C)=O)CO[C@@H]1C[C@@H]2O` [Paclitaxel], the IC50 (A2780 cells) is reported as 0.01 µM, the “Resistance of A2780-NiraR cells in words” value (A2780-NiraR cells; A2780-NiraR cells) is reported as “cross-resistant” and the “Drug resistance index (RI) = IC50 of drug-resistant cells/IC50 of parental cells” value (A2780-NiraR cells) is reported as 31.02. For the same molecule, the IC50 (A2780-NiraR cells; [1]) was 0.318 µM.
